Experimental data as given in US20080300221A1, “Contact Lens Care Composition” (priority 2005, published 2008).

Key:
cysts of A. castellani = test: Susceptibility test for Acanthamoeba cysts (viable cells on non-nutrient agar plates after soaking in contact lens solution); format: cell-based, A. castellanii; design: key: +: viable cells; −: no viable cells; conditions: after 8 hours soaking; 10^3 cysts; plates incubated at 30° C. for 14 days; Miltefosine alone tested at 80 μM
Protocol: The activity of various multi-purpose contact lens solutions (for cleaning, rinsing, storing and disinfecting a contact lens while the lens is not worn) was tested against cysts of A. castellani.
Contact lens disinfection solutions tested (Table 1) were purchased from local retail stores. In case of the H2O2 based systems, neutralization of the 3% hydrogen peroxide is achieved within 6 hours by a catalytic platinum disk which is located in the contact lens storage case according to the manufacturer's instructions. Miltefosine was dissolved in 5% Ethanol (2 mM stock solution) and tested at 80 μM in Acanthamoeba medium (PYG) or in contact lens disinfection medium.
A. castellanii, was isolated from a patient suffering from a severe Acanthamoeba keratitis. Isolation was achieved by inoculating corneal epithelium onto non-nutrient agar plates covered with a 48-h-old culture of Escherichia coli. The isolate was cloned by transferring a single cyst onto a fresh plate with a micromanipulator. Axenisation was achieved by harvesting cysts from parallel cultures and incubating them in 3% HCl overnight in order to eliminate coexisting bacteria. […] The cysts were harvested by centrifugation (500 g/7 minutes), resuspended in sterile 0.9% NaCl and counted in a BurkerTurk haemocytometer. […]

Acanthamoeba = conditions: cited from earlier work

For `CCCCCCCCCCCCCCCCOP(=O)([O-])OCC[N+](C)(C)C` [Miltefosine, 1-hexadecylphosphorylcholine], the “Viable Acanthamoeba cells after disinfection with commercially available disinfectants” value (cysts of A. castellani) was “−”.
For `[H]/N=C(\N/C(=N/[H])NCCCCCCNC(=N)NC(=N)Nc1ccc(Cl)cc1)Nc1ccc(Cl)cc1` [chlorhexidine], the “Effectiveness against Acanthamoeba among contact lens disinfectants” value (Acanthamoeba) is given as “most effective”.
